PubChem BioAssay (NCI)
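All cell lines were grown in 96-well plates and treated with compound for 48 hours. The concentration for full growth arrest is given as TGI.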

Experiments:
Assay in all cases: DTP human tumour cell line panel, 48 h
[1] = test system: 786-0 renal
[2] = test system: A549 NSCLC
[3] = test system: ACHN renal
[4] = test system: CAKI-1 renal
[5] = test system: COLO 205 colon
[6] = test system: EKVX NSCLC
[7] = test system: HCT-116 colon
[8] = test system: HL-60(TB) leukemia
[9] = test system: HS 578T breast
[10] = test system: HT29 colon
[11] = test system: IGROV1 ovarian
[12] = test system: K-562 leukemia
[13] = test system: LOX IMVI melanoma
[14] = test system: MALME-3M melanoma
[15] = test system: MDA-MB-231 breast
[16] = test system: OVCAR-8 ovarian
[17] = test system: SF-268 CNS
[18] = test system: SNB-19 CNS
[19] = test system: U251 CNS
[20] = test system: SF-539 CNS

Row | SMILES | TGI [1] [µM] | TGI [2] [µM] | TGI [3] [µM] | TGI [4] [µM] | TGI [5] [µM] | TGI [6] [µM] | TGI [7] [µM] | TGI [8] [µM] | TGI [9] [µM] | TGI [10] [µM] | TGI [11] [µM] | TGI [12] [µM] | TGI [13] [µM] | TGI [14] [µM] | TGI [15] [µM] | TGI [16] [µM] | TGI [17] [µM] | TGI [18] [µM] | TGI [19] [µM] | TGI [20] [µM]
1 | CN(C)S(=O)(=O)c1nc(Cl)c2[nH]cnc2n1 | > 100 | > 100 | > 100 | > 100 | > 100 | > 100 | > 100 | > 100 | > 100 | > 100 | > 100 | > 100 | > 100 | > 100 | > 100 | > 100 | > 100 | > 100 | > 100 | –
2 | CCC(Nc1ncnc2nc[nH]c12)C(=O)O (stereo not given) | > 100 | > 100 | > 100 | > 100 | > 100 | > 100 | > 100 | > 100 | > 100 | > 100 | > 100 | > 100 | > 100 | > 100 | > 100 | > 100 | > 100 | > 100 | > 100 | –
3 | Cn1cc2c3ccccc3nc-2c2ccccc21 | 11.1 | 5.65 | 5.81 | 7.79 | 3.07 | – | 3.2 | 4.48 | 5.3 | 5.35 | – | 9.65 | 4.36 | 5.78 | 5.73 | 3.42 | 6.86 | 10.6 | 6.51 | 3.66
4 | COc1ccc(/C=C/C(=O)c2ccc(Br)cc2)cc1 | > 100 | > 100 | > 100 | > 100 | > 100 | > 100 | > 100 | > 100 | > 100 | > 100 | > 100 | > 100 | – | > 100 | > 100 | > 100 | > 100 | > 100 | > 100 | > 100
5 | C=C(C)CCC1C=[N+]([O-])OC(C)(C)C1(C)C (stereo not given) | > 100 | > 100 | > 100 | > 100 | > 100 | > 100 | > 100 | 73.8 | > 100 | > 100 | > 100 | > 100 | > 100 | – | > 100 | > 100 | > 100 | – | > 100 | > 100
6 | COc1ccc(C2=NNC(=O)c3ccccc3N2c2nc(-c3cccs3)nc3cc(OC)c(OC)cc23)cc1 | 12.1 | > 100 | 13.3 | 44.7 | > 100 | > 100 | > 100 | – | 27.5 | – | > 100 | > 100 | – | 6.92 | 13.5 | > 100 | > 100 | > 100 | 33.3 | 8.56
7 | CCNC(=S)NNC(=O)c1ccccc1Nc1ccccc1C(=O)NNC(=S)NCC | > 100 | > 100 | > 100 | – | > 100 | > 100 | > 100 | > 100 | > 100 | > 100 | > 100 | > 100 | > 100 | > 100 | > 100 | > 100 | – | > 100 | > 100 | –
8 | CCOS(=O)(=O)c1ccc(-c2c3nc(c(-c4ccc(S(=O)(=O)OCC)cc4)c4ccc([nH]4)c(-c4ccc(S(=O)(=O)OCC)cc4)c4nc(c(-c5ccc(S(=O)(=O)OCC)cc5)c5ccc2[nH]5)C=C4)C=C3)cc1 | > 31.6 | > 31.6 | > 31.6 | > 31.6 | > 31.6 | > 31.6 | > 31.6 | > 31.6 | > 31.6 | > 100 | > 100 | – | – | > 31.6 | > 31.6 | > 31.6 | > 31.6 | > 31.6 | > 31.6 | > 31.6
9 | CCSc1nc(N/N=C/c2cccs2)c2cnn(CO)c2n1 | 6.34 | 24.1 | 22.6 | 13.7 | 29.7 | 25.6 | 16.6 | 42.1 | 15.3 | 13.4 | 10.7 | 52.7 | – | 26.9 | 54.8 | 14.9 | 23.7 | 27.1 | 30.1 | 26
10 | CSc1ncc2c(n1)-c1ccccc1OC2 | > 100 | > 100 | > 100 | 84.7 | > 100 | > 100 | > 100 | > 100 | > 100 | > 100 | > 100 | – | > 100 | – | > 100 | > 100 | > 100 | > 100 | > 100 | > 100
11 | O=c1/c(=C/c2ccccn2)sc2nc3cc4c(cc3n12)OCCO4 | > 100 | > 100 | > 100 | > 100 | > 100 | – | > 100 | – | > 100 | > 100 | > 100 | > 100 | > 100 | > 100 | > 100 | > 100 | > 100 | > 100 | > 100 | –
12 | COc1ccc2[nH]c3c(c2c1)CC(=O)N1CCC[C@H](C1)CC31OCCCO1 | > 100 | > 100 | > 100 | > 100 | > 100 | > 100 | > 100 | – | > 100 | > 100 | > 100 | – | – | > 100 | > 100 | > 100 | > 100 | > 100 | > 100 | –
13 | Cc1cc(C)n(-c2nc(C)c(CCO)c(=O)[nH]2)n1 | > 100 | > 100 | > 100 | – | > 100 | > 100 | > 100 | > 100 | > 100 | > 100 | > 100 | > 100 | > 100 | > 100 | > 100 | > 100 | > 100 | > 100 | > 100 | > 100
14 | NC(=S)N1N=C2c3ccccc3CCC[C@H]2[C@@H]1c1ccccc1 | 21.8 | > 53.7 | 30.6 | – | 6.32 | 70.2 | 12.7 | – | 17.4 | 6.18 | 25 | > 37.9 | 16.4 | 21.5 | 17.1 | 17.4 | 39.4 | 25.2 | 17.7 | 2.61
15 | Cc1ccc(S(=O)(=O)N(CCNC(=O)c2cccc(O)c2O)c2cc3c4c(c2)Oc2cccc5c2C4(C)c2c(cccc2O3)O5)cc1 | > 100 | > 100 | > 100 | > 100 | – | > 100 | > 100 | – | > 100 | > 100 | > 100 | > 100 | > 100 | > 100 | > 100 | > 100 | > 100 | > 100 | > 100 | > 100
16 | COc1ccc(-c2cc(-c3ccc(Nc4ccnc5cc(Cl)ccc45)cc3)[nH]c(=O)c2C#N)cc1 | > 100 | > 100 | > 100 | > 100 | > 100 | > 100 | > 100 | > 100 | > 100 | – | > 100 | > 100 | > 100 | > 100 | > 100 | > 100 | > 100 | > 100 | > 100 | > 100
17 | O=C1Nc2ccc(Br)cc2/C1=N/N1C(=O)C(=O)N(C2CCCCC2)C1=S | 18.4 | 19.2 | 16.7 | 12.3 | 10.4 | 23.1 | 10.8 | 7.23 | 23.2 | 7.91 | – | 12.6 | 15.7 | 22.3 | 25.5 | – | 30.3 | 69.1 | 15.9 | 18.3
18 | O=C1c2cccnc2-c2nccc3c2c1nc1ccccc13 | 2.21 | 0.739 | – | 0.467 | 4.77 | 3.21 | 0.18 | – | 2.26 | 2.5 | 1.33 | 0.667 | 0.207 | 0.603 | 0.674 | 1.61 | 0.834 | 1.28 | 0.703 | 0.544
19 | CSc1ccc2c(c1)c(CCN)c(C)n2Cc1ccccc1Cl | 3.42 | 3.18 | 3.06 | 4.1 | 2.99 | 3.12 | 3.07 | 3.2 | 3.67 | 3.09 | 3.25 | 2.83 | – | 3.34 | 3.66 | – | 3.4 | 3.32 | 3.06 | 2.26
20 | COc1cccc(CCNc2c(C#N)c3n(c4ccccc4[n+]3C)c3ncccc23)c1 | 3.35 | 4.04 | 36.1 | > 100 | 10.5 | 36.5 | 5.3 | – | 15 | 3.14 | – | > 100 | 3.08 | 32.6 | 6.89 | 3.87 | 38.5 | 18.8 | > 21.3 | 3.55
21 | Cc1nc2ccc(NC3OCC(O)C(O)C3O)cc2c(=O)n1-c1ccccc1 (stereo not given) | > 100 | – | > 100 | > 100 | > 100 | > 100 | > 100 | > 100 | > 100 | > 100 | > 100 | > 100 | > 100 | > 100 | > 100 | > 100 | > 100 | > 100 | > 100 | –
22 | O=C1CN(c2cccc(C(F)(F)F)c2)C(=O)CN1CCN1CC(=O)N(c2cccc(C(F)(F)F)c2)CC1=O | > 100 | > 100 | > 100 | – | > 100 | > 100 | > 100 | > 100 | > 100 | > 100 | > 100 | > 100 | – | – | > 100 | > 100 | > 100 | > 100 | > 100 | > 100
23 | O=c1[nH]c2ccc(CC(=S)N3CCOCC3)cc2o1 | > 100 | – | > 100 | > 100 | > 100 | > 100 | > 100 | > 100 | > 100 | > 100 | > 100 | – | > 100 | > 100 | > 100 | > 100 | > 100 | – | > 100 | > 100
24 | COc1ccc(Nc2nc(N)c(C(=O)c3ccc(Cl)cc3)s2)cc1 | 11.2 | 22.3 | 31.5 | 13.4 | 0.117 | > 100 | 6.64 | < 0.0331 | > 100 | 5.28 | 17.7 | > 100 | 19.9 | – | 6.13 | 15 | > 67.5 | 31.2 | 4.58 | 0.18
25 | CCCCCCCCCCCCOC1C(COCCN2CCCCC2)OC2OC(C)(C)OC21 (stereo not given) | 3.11 | 19.9 | 4.69 | 3.28 | 3.03 | – | 3.07 | 3.02 | 4.17 | 2.53 | 3.26 | – | 3.01 | 3.28 | 3.43 | 3.41 | 6.44 | 8.07 | 3.48 | 3.18
